Test results reported in patent publication US20240108618A1, “KRAS G12C INHIBITOR DOSING REGIMENS” (Eli Lilly and Company, priority 2022, published 2024).
Where “and” joins values, the source holds several entries; their conditions need not be identical. Identical values can stand only once.

System: KRAS G12C-mutant advanced solid tumors
Experiment: NCT04956640 Phase 1a monotherapy clinical response (BOR, ORR, DCR, DOR, TTR, % change from baseline, treatment duration)
Format: in vivo, human
Set-up: key to Duration of response (months), Median / Best Response: CR: complete response; PR: partial response; uPR: a partial response pending confirmation; SD: stable disease; PD: progressive disease; NE: not estimable
Settings: for Time to response (months), Interquartile range / Time to response (months), Median / Duration of response (months), Median / % Change from Baseline in Sum of Diameters for all Target Lesions / Best Response / Time (months) of Death / Time (months) of Partial Response - Confirmed / Time (months) of Progressive Disease / Time (months) of Partial Response - Pending Confirmation and Ongoing / Patients with best overall response of CR or PR: Phase 1a; for Duration of response (months), Median: Kaplan-Meier estimate; for % Change from Baseline in Sum of Diameters for all Target Lesions / Best Response / Time (months) of Death / Time (months) of Partial Response - Confirmed / Time (months) of Progressive Disease / Time (months) of Partial Response - Pending Confirmation and Ongoing: individual patients
Experimental: The term “BOR” as used herein refers to best overall response based on investigator assessments using RECIST criteria (version 1.1). The minimum duration for BOR of SD is at least 6 weeks after the date of first dose of study drug.
The term “DOR” as used herein refers to duration of response, wherein DOR in months is calculated as the event or censoring date minus the response start date plus 1 day divided by 30.4375.
The term “ORR” as used herein refers to objective response rate, wherein objective response rate is the proportion of patients with BOR of CR or PR. Objective response rate, unconfirmed, is the proportion of patients with BOR of CR, PR, or uPR.
The term “TTR” as used herein refers to time to response, wherein TTR in months is calculated as response start date minus first dose date plus 1 day divided by 30.4375.
NCT04956640 includes Phase 1a dose escalation (Part A of NCT04956640, see Table 3) followed by a Phase 1b dose expansion (Parts B to E of NCT04956640, see Table 4). […] Phase 1b dose expansion will include 12 cohorts (See Table 4) to further evaluate safety and clinical activity.

[1] = starting dose 50 BID, no prior KRAS G12Ci, listed as compound of Formula I
[2] = starting dose 50 BID, prior KRAS G12Ci Y, listed as compound of Formula I
[3] = starting dose 100 BID, no prior KRAS G12Ci, listed as compound of Formula I
[4] = starting dose 100 BID, prior KRAS G12Ci Y
[5] = starting dose 100 BID, prior KRAS G12Ci Y, listed as compound of Formula I
[6] = starting dose 150 BID, no prior KRAS G12Ci, listed as compound of Formula I
[7] = starting dose 150 BID, prior KRAS G12Ci Y, listed as compound of Formula I
[8] = starting dose 200 BID, no prior KRAS G12Ci, listed as compound of Formula I
[9] = starting dose 200 BID, prior KRAS G12Ci Y, listed as compound of Formula I
[10] = starting dose 50 mg BID (N = 14)
[11] = starting dose 100 mg BID (N = 24)
[12] = starting dose 150 mg BID (N = 25)
[13] = starting dose 200 mg BID (N = 12)
[14] = starting dose 50 mg BID, incl. intrapatient dose escalation
[15] = starting dose 100 mg BID, incl. intrapatient dose escalation
[16] = starting dose 150 mg BID, 11 patients with scan data
[17] = starting dose 200 mg BID, 5 patients with scan data

SMILES: C=CC(=O)N1CCN2C(=O)c3cc(F)c(-c4ccc(F)c5sc(N)c(C#N)c45)c(Cl)c3OCC[C@H]2C1 (single isomer, unassigned) [Formula I]
- Time to response (months), Interquartile range (Total (N = 75)): 1.45 months
- Time to response (months), Median (Total (N = 75)): 1.41 months
- Duration of response (months), Median (Total (N = 75)): 6.24 months
- % Change from Baseline in Sum of Diameters for all Target Lesions [1]: 9.7% and −0.3% and −6.0% and −8.6% and −9.9% and −10.5% and −13.1% and −17.1% and −26.8% and −31.6% and −45.0%
- Best Response [1]: PD and SD (8×) and PR Confirmed (2×)
- Time (months) of Death [1]: 9.8 months and 5.7 months and 1.8 months and 7.4 months and 11.5 months
- Time (months) of Partial Response - Confirmed [1]: 1.3 months and 1.2 months
- Time (months) of Progressive Disease [1]: 6.7 months and 2.8 months (2×) and 1.2 months and 5.3 months and 2.7 months and 11.1 months
- % Change from Baseline in Sum of Diameters for all Target Lesions [2]: −13.0% and 50.0%
- Best Response [2]: SD and PD
- Time (months) of Death [2]: 8.4 months and 1.8 months
- Time (months) of Progressive Disease [2]: 5.6 months and 1.3 months and 1.0 months
- % Change from Baseline in Sum of Diameters for all Target Lesions [3]: 0.7% and 0.5% and −4.8% and −6.0% and −8.1% and −17.3% and −21.1% and −22.4% and −22.7% and −25.1% and −29.8% and −30.0% and −32.3% (2×) and −35.4% and −51.4% and −54.0% and −54.8% and −57.1% and −84.4%
- Best Response [3]: SD (10×) and PD (2×) and PR Pending (2×) and PR Confirmed (6×)
- Time (months) of Death [3]: 7.0 months and 10.3 months and 7.6 months and 1.7 months
- Time (months) of Partial Response - Confirmed [3]: 1.3 months and 1.4 months (4×) and 7.7 months
- Time (months) of Partial Response - Pending Confirmation and Ongoing [3]: 5.5 months and 1.2 months
- Time (months) of Progressive Disease [3]: 2.9 months and 2.7 months and 4.2 months and 6.9 months and 4.1 months and 1.2 months and 5.6 months and 1.3 months and 9.5 months
- Time (months) of Death [4]: 4.2 months
- Time (months) of Partial Response - Confirmed [4]: 3.1 months
- Time (months) of Progressive Disease [4]: 2.8 months
- % Change from Baseline in Sum of Diameters for all Target Lesions [5]: −4.3% and −40.0% and −44.7%
- Best Response [5]: SD (2×) and PR Confirmed
- Time (months) of Partial Response - Pending Confirmation and Ongoing (starting dose 150 BID, no prior KRAS G12Ci): 1.2 months
- % Change from Baseline in Sum of Diameters for all Target Lesions [6]: 27.3% and 4.3% and 3.8% and 3.4% and 0.0% and −0.7% and −5.3% and −7.1% and −8.2% and −11.5% and −16.7% and −18.8% and −23.3% and −24.0% and −37.0% and −41.6% and −51.0% and −52.4% and −60.3% and −67.9% and −91.1%
- Best Response [6]: PD and SD (13×) and PR Pending and PR Confirmed (6×)
- Time (months) of Death [6]: 5.3 months and 4.9 months
- Time (months) of Partial Response - Confirmed [6]: 1.5 months and 4.1 months and 4.2 months and 1.4 months (3×)
- Time (months) of Progressive Disease [6]: 9.7 months and 6.7 months and 7.6 months and 4.1 months and 3.3 months and 1.2 months
- Time (months) of Death (starting dose 150 BID, prior KRAS G12Ci Y): 3.3 months
- % Change from Baseline in Sum of Diameters for all Target Lesions [7]: −0.7% and −3.3% and −25.8% and −29.7%
- Best Response [7]: SD (3×) and PD
- Time (months) of Progressive Disease [7]: 4.1 months and 1.2 months
- Time (months) of Death (starting dose 200 BID, no prior KRAS G12Ci): 4.7 months
- % Change from Baseline in Sum of Diameters for all Target Lesions [8]: −4.2% and −5.0% and −9.6% and −9.9% and −14.3% and −32.3% and −37.5% and −65.9% and −75.0%
- Best Response [8]: SD (4×) and PD and PR Confirmed (4×)
- Time (months) of Partial Response - Confirmed [8]: 2.8 months and 1.4 months and 1.2 months (2×)
- Time (months) of Progressive Disease [8]: 2.9 months and 2.5 months and 1.3 months and 8.3 months and 7.4 months
- Time (months) of Progressive Disease (starting dose 200 BID, prior KRAS G12Ci Y): 1.3 months
- % Change from Baseline in Sum of Diameters for all Target Lesions [9]: 5.3% and 1.4%
- Best Response [9]: PD and SD
- Patients with best overall response of CR or PR [10]: 2 (14.3) N′ (%)
- Time to response (months), Interquartile range [10]: 0.13 months
- Time to response (months), Median [10]: 1.25 months
- Duration of response (months), Median [10]: NE
- Patients with best overall response of CR or PR [11]: 7 (29.2) N′ (%)
- Time to response (months), Interquartile range [11]: 1.68 months
- Time to response (months), Median [11]: 1.41 months
- Duration of response (months), Median [11]: 5.45 months
- Patients with best overall response of CR or PR [12]: 6 (24.0) N′ (%)
- Time to response (months), Interquartile range [12]: 2.69 months
- Time to response (months), Median [12]: 1.46 months
- Duration of response (months), Median [12]: 7.21 months
- Patients with best overall response of CR or PR [13]: 4 (33.3) N′ (%)
- Time to response (months), Interquartile range [13]: 0.87 months
- Time to response (months), Median [13]: 1.33 months
- Duration of response (months), Median [13]: 6.93 months
- median time to response (human, in vivo): 1.4 month
- Best observed response PR (unconfirmed and confirmed), patients (other tumor types): 3
- Best observed response SD, patients (other tumor types): 6
- PR, patients (starting dose 50 mg BID): 0
- DCR [14]: 75%
- ORR [14]: 0%
- PD, patients (starting dose 100 mg BID): 2 (2 PANC)
- DCR [15]: 80%
- ORR [15]: 40%
- DCR [16]: 90.9%
- ORR [16]: 18.2%
- DCR [17]: 100%
- ORR [17]: 20%
